One test relates to total ATXN3 protein. Put plainly: ATXN3 Total Protein Assay (Mesoscale Discovery, SK-N-MC cells). The test is classed as cell-based, Human. The following applies: incubation for 48 hours, MSD assay. Here is the method: Example 35: ATXN3 Total Protein Assay
Human neuroblastoma SK-N-MC cells were seeded at 10,000 cells/well in 384 well plates one day prior to compound treatment. The concentrations of compounds were tested at appropriate doses ranging from 30 μM to 0.6 nM. After incubation for 48 hours, the cells were lysed with 25 μL of lysis buffer containing protease inhibitors, and total ATXN3 protein levels were assessed by Mesoscale Discovery (MSD) assay developed with one pair of anti-ATXN3 antibodies. The capture and detect antibodies were raised in mouse and rabbit respectively. Anti-rabbit MSD-ST antibody was used for secondary antibody.
ATXN3 recombinant protein was used for standards. The readouts were captured with 35 μL of MSD read buffer and multi-array 384-well high binding plates.

The test system of test [1] is ATXN3 transcripts containing exon 4. Put plainly: ATXN3 Quantitative Splicing Assay (qPCR, E4E5 primers/probe). The test is classed as cell-based. The following applies: Homo sapiens, SK-N-MC cells, compounds for 24 h. Here is the method:
Example 34: ATXN3 Quantitative Splicing Assay
Human neuroblastoma SK-N-MC cells were plated in 384-well plates at 20,000 cells/well. Twenty-four hours after plating, cells were treated with compounds for 24 h at appropriate concentrations ranging from 30 μM to 0.6 nM (0.300 DMSO). Treated cells were lysed in 15 μL of lysis buffer, and cDNA was synthesized using the Fast Advanced Cells-to-Ct kit. Two […] of each cDNA was used in qPCR reactions to confirm the exon 4 skipped transcripts of ATXN3. A second set of primers/probe E4E5 was used to detect the transcripts containing exon 4. The third set of primers/probe E8E9 was used to detect total gene level of ATXN3. The qPCR reactions were prepared in 384-well plates in 10 μL volume, using TaqMan™ Fast Advanced Master Mix with primers and probes shown in the table below. Reactions were run in a Quant Studio 6 qPCR instrument with default settings.
The primers and probes are listed below in Table 4.
On the technique in general: Quantitative PCR measures a nucleic acid by following its amplification.

The next test concerns ATXN3-HiBiT protein. Put plainly: ATXN3 Total Protein Assay (Kelly-ATXN3-HiBiT luminescence). The test is classed as cell-based. The settings on record: Kelly-ATXN3-HiBiT cells, 48 h after addition of compound. The essentials:
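Endogenous ATXN3-HiBiT protein in knock-in Kelly neuroblastoma cells measured by lytic HiBiT luminescence 48 h post-compound (added 24 h after seeding 2000 cells/well). Values are fold changes relative to DMSO, with viability from a parallel CellTiter-Glo plate.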

One may read the IC50 as the concentration needed to halve the response being measured. Higher therefore signals a need for much substance. What is called EC50 is the midpoint of the concentration-response curve. High values mean weaker potency, low ones greater potency. As to `[2H]C([2H])([2H])OC[C@H](N)Cc1oc2c(NCc3cccs3)cc(Cl)nc2c1Br` [Compound 157, 2-[(R)-2-amino-3-(2H3)methoxypropyl]-3-bromo-5-chloro-7-thenylamino-1-oxa-4-azaindene], the IC50 (in the test on total ATXN3 protein; in test [1]) was 0.01 to 100 nM throughout. Besides, in the test on ATXN3-HiBiT protein, the EC50 was in the range of 0.01 to 100 nM.
Turning to `C[C@H](F)[C@H](N)Cc1oc2c(NCc3ccco3)cc(Cl)nc2c1Cl` [Compound 150, 2-[(2R,3S)-2-amino-3-fluorobutyl]-3,5-dichloro-7-(furfurylamino)-1-oxa-4-azaindene], the IC50 (with total ATXN3 protein; in test [1]) was 0.01 to 100 nM in each case. In the test with ATXN3-HiBiT protein, this compound showed a 50% effective concentration (EC50) of 0.01 to 100 nM.
As for `C[C@H](N)Cc1oc2c(NCc3cccs3)cc(Cl)nc2c1-c1ncco1` [Compound 262, 2-[(S)-2-aminopropyl]-5-chloro-3-(1,3-oxazol-2-yl)-7-thenylamino-1-oxa-4-azaindene], the half-maximal inhibitory concentration (IC50) (in the test on total ATXN3 protein; in test [1]) was 101 to 500 nM throughout. This compound yielded an EC50 in the test with ATXN3-HiBiT protein of 101 to 500 nM.
As for `C[C@H](F)[C@H](N)Cc1oc2c(NCc3cccs3)cc(Cl)nc2c1-c1ccoc1` [Compound 332, 2-[(2R,3S)-2-amino-3-fluorobutyl]-5-chloro-3-(3-furyl)-7-thenylamino-1-oxa-4-azaindene], the concentration for half-maximal inhibition (IC50) (in the test with total ATXN3 protein; in test [1]) was 501 to 5000 nM in each case. In the test on ATXN3-HiBiT protein, this compound returned an EC50 of 501 to 5000 nM.
Turning to `C[C@H](N)Cc1oc2c(NCc3cccs3)cc(C(N)=O)nc2c1Br` [Compound 288, 2-[(S)-2-aminopropyl]-3-bromo-7-thenylamino-1-oxa-4-aza-5-indenecarboxamide], the IC50 (in the test with total ATXN3 protein; in test [1]) was 10000 to 40000 nM each time. The EC50 with ATXN3-HiBiT protein was in the range of 10000 to 40000 nM.
In the case of `C[C@H](F)[C@H](N)Cc1oc2c(NCc3cccs3)cc(Cl)nc2c1C1CC1` [Compound 240, 2-[(2R,3S)-2-amino-3-fluorobutyl]-5-chloro-3-cyclopropyl-7-thenylamino-1-oxa-4-azaindene], the half-maximal inhibitory concentration (IC50) (in the test on total ATXN3 protein; in test [1]) was 501 to 5000 nM throughout. Further, in the test on ATXN3-HiBiT protein, the concentration giving a half-maximal response (EC50) is 501 to 5000 nM.
For the compound `C[C@@H](F)[C@H](N)Cc1oc2c(NCc3ccco3)cc(Cl)nc2c1Br` [Compound 114, 2-[(2R,3R)-2-amino-3-fluorobutyl]-3-bromo-5-chloro-7-(furfurylamino)-1-oxa-4-azaindene], the half-maximal inhibitory concentration (IC50) (in the test on total ATXN3 protein; in test [1]) was 501 to 5000 nM each time. Besides, the EC50 in the test on ATXN3-HiBiT protein lay in the range of 501 to 5000 nM.
With `N[C@@H](COC(F)(F)F)Cc1oc2c(NCc3cccs3)cc(Cl)nc2c1Br` [Compound 116, 2-[(R)-2-amino-3-trifluoromethoxypropyl]-3-bromo-5-chloro-7-thenylamino-1-oxa-4-azaindene], the IC50 (in the test with total ATXN3 protein; in test [1]) was 101 to 500 nM throughout. Moreover, in the test with ATXN3-HiBiT protein, the EC50 was in the range of 501 to 5000 nM.
`COC[C@H](N)Cc1oc2c(NCc3cccs3)cc(Cl)nc2c1Cl` [Compound 50, 2-[(R)-2-amino-3-methoxypropyl]-3,5-dichloro-7-thenylamino-1-oxa-4-azaindene]: the IC50 (in the test on total ATXN3 protein; in test [1]) was 0.01 to 100 nM in each case. In the test with ATXN3-HiBiT protein, the EC50 lay within 0.01 to 100 nM.
Take `C[C@H](N)Cc1oc2c(NCc3cccs3)cc(Cl)nc2c1-c1ccn[nH]1` [Compound 319, 2-[(S)-2-aminopropyl]-5-chloro-3-(5-pyrazolyl)-7-thenylamino-1-oxa-4-azaindene]: the half-inhibitory concentration (IC50) (in the test on total ATXN3 protein; in test [1]) was 501 to 5000 nM in each case. In the test on ATXN3-HiBiT protein, this compound returned an EC50 of 501 to 5000 nM.
On to `C[C@H](N)Cc1oc2c(NCc3cccs3)cc(Cl)nc2c1-c1ccnn1C` [Compound 316, 2-[(S)-2-aminopropyl]-5-chloro-3-(1-methyl-5-pyrazolyl)-7-thenylamino-1-oxa-4-azaindene], for which the IC50 (in the test on total ATXN3 protein; in test [1]) was 10000 to 40000 nM in each case. For the same compound, the 50% effective concentration (EC50) in the test on ATXN3-HiBiT protein was 10000 to 40000 nM.
As for `C[C@H](N)Cc1oc2c(NCc3cccs3)cc(Cl)nc2c1Br` [Compound 17, 2-[(S)-2-aminopropyl]-3-bromo-5-chloro-7-thenylamino-1-oxa-4-azaindene], the half-maximal inhibitory concentration (IC50) (in the test with total ATXN3 protein; in test [1]) was 0.01 to 100 nM each time. In the test with ATXN3-HiBiT protein, this compound yielded an EC50 of 0.01 to 100 nM.
For the compound `C[C@H](F)[C@H](N)Cc1oc2c(NCc3ccncc3F)cc(Cl)nc2c1Cl` [Compound 149, 2-[(2R,3S)-2-amino-3-fluorobutyl]-3,5-dichloro-7-{[(3-fluoro-4-pyridyl)methyl]amino}-1-oxa-4-azaindene], the half-maximal inhibitory concentration (IC50) (in the test with total ATXN3 protein; in test [1]) was 101 to 500 nM in each case. The compound further yielded an EC50 with ATXN3-HiBiT protein of 101 to 500 nM.
For `N[C@@H](CCOC(F)F)Cc1oc2c(NCc3cccs3)cc(Cl)nc2c1Br` [Compound 154, (S)-2-(2-amino-4-(difluoromethoxy)butyl)-3-bromo-5-chloro-N-(thiophen-2-ylmethyl)furo[3,2-b]pyridin-7-amine], the IC50 (in the test on total ATXN3 protein; in test [1]) was 0.01 to 100 nM in each case. Moreover, the 50% effective concentration (EC50) in the test on ATXN3-HiBiT protein was in the range of 0.01 to 100 nM.
For the compound `C[C@H](N)Cc1oc2c(NCc3cccs3)cc(Cl)nc2c1-c1nccn1C` [Compound 314, 2-[(S)-2-aminopropyl]-5-chloro-3-(1-methyl-2-imidazolyl)-7-thenylamino-1-oxa-4-azaindene], the IC50 (in the test on total ATXN3 protein; in test [1]) was 10000 to 40000 nM each time. Also, the half-maximal effective concentration (EC50) in the test on ATXN3-HiBiT protein lay in the range of 10000 to 40000 nM.
As to `N[C@H](Cc1oc2c(NCc3ccco3)cc(Cl)nc2c1Cl)CC(F)(F)F` [Compound 27, 2-[(R)-2-amino-4,4,4-trifluorobutyl]-3,5-dichloro-7-(furfurylamino)-1-oxa-4-azaindene], the concentration for half-maximal inhibition (IC50) (with total ATXN3 protein; in test [1]) was 501 to 5000 nM throughout. This compound showed an EC50 in the test with ATXN3-HiBiT protein of 501 to 5000 nM.
Turning to `N[C@H](Cc1oc2c(NCc3ccco3)cc(Cl)nc2c1Cl)CC1CC1` [Compound 29, 2-[(S)-2-amino-3-cyclopropylpropyl]-3,5-dichloro-7-(furfurylamino)-1-oxa-4-azaindene], the IC50 (in the test with total ATXN3 protein; in test [1]) was 101 to 500 nM in each case.
As for `Cc1c(C[C@H](C)N)oc2c(NCc3ccncc3)cc(Cl)nc12` (single isomer, unassigned) [Compound 3], the IC50 (with total ATXN3 protein; in test [1]) was 501 to 5000 nM in each case.
`Cc1c(C[C@H](C)N)oc2c(NCc3ccccc3)cc(Cl)nc12` [Compound 8, 2-[(S)-2-aminopropyl]-7-benzylamino-5-chloro-3-methyl-1-oxa-4-azaindene]: the IC50 (with total ATXN3 protein; in test [1]) was 501 to 5000 nM throughout.
For `Cc1coc2c(NCc3ccncc3)cc(Cl)nc12` [Compound 5, [(4-pyridyl)methyl](5-chloro-3-methyl-1-oxa-4-aza-7-indenyl)amine], the IC50 (in the test with total ATXN3 protein; in test [1]) was 10000 to 40000 nM in each case.
On to `Cc1c(C[C@H](C)N)oc2c(NCc3ccco3)cc(Cl)nc12` [Compound 10, 2-[(S)-2-aminopropyl]-5-chloro-7-(furfurylamino)-3-methyl-1-oxa-4-azaindene], for which the half-inhibitory concentration (IC50) (in the test on total ATXN3 protein; in test [1]) was 501 to 5000 nM throughout.
As for `N[C@H](Cc1oc2c(NCc3ccco3)cc(Cl)nc2c1Br)CC1CC1` [Compound 56, 2-[(S)-2-amino-3-cyclopropylpropyl]-3-bromo-5-chloro-7-(furfurylamino)-1-oxa-4-azaindene], the half-maximal inhibitory concentration (IC50) (in the test on total ATXN3 protein; in test [1]) was 0.01 to 100 nM in each case.
For `C[C@H](N)Cc1oc2c(NCc3ccco3)cc(Cl)nc2c1Cl` [Compound 54, 2-[(S)-2-aminopropyl]-3,5-dichloro-7-(furfurylamino)-1-oxa-4-azaindene], the figures for the concentration for half-maximal inhibition (IC50) (in the test with total ATXN3 protein; in test [1]) were 0.01 to 100 nM and 101 to 500 nM, respectively.

Source of the values: patent US20260001889A1, “COMPOSITIONS USEFUL FOR MODULATING SPLICING” (Skyhawk Therapeutics, Inc., priority 2022, published 2026).
